| melting point [°C] | SMILES |
| --- | --- |
| 240 | Cn1c(=O)c(C2=NNC(=O)C2=NNc2cccc(Br)c2)c(O)c2ccccc21 |
| 200 to 202 | O=C(c1ccc(Br)cc1)c1noc(-c2ccc([N+](=O)[O-])cc2)c1S(=O)(=O)c1ccccc1 |
| 177 to 179 | O=C(O)c1cccc(-c2ccsc2)c1 |
| 75 to 77 | Nc1ccc(Br)c(Cl)c1Cl |
| 195 | NC(=O)c1ccc2ccccc2c1 |
| 195 | CN(C)c1ccc2c(c1)Sc1cc(N(C)C)ccc1N2C(=O)c1ccccc1 |
| 137 to 139 | Cc1n[nH]c(C)c1C |
| 98 | COc1ccc(CCC(=O)O)cc1OC |
| -35.6 | CCCCOC(=O)CC(C)=O |
| 110 to 113 | NC(=S)c1cccc(Cl)c1 |
| 72 | CCCCCCCCCCCCCCCC(=O)OCCOC(=O)CCCCCCCCCCCCCCC |
| 38 to 44 | N#Cc1cccc(C(=O)Cl)c1 |
| 203 | Cc1nn(-c2ccccc2)nc1C(=O)O |
| 67 to 68 | CC(=O)c1sc(-c2ccccc2)nc1C |
| 128 to 130 | COc1ccc(CC(=O)O)cc1O |
| 266 to 270 | Oc1ccnc2cc(C(F)(F)F)ccc12 |
| 88.5 | OCC1(CO)CC=CCC1 |
| 205 | O=C1c2ccccc2-c2ccc(O)cc21 |
| 300 | O=C1Nc2ccccc2C1=Nn1c(S)nnc1C(F)(F)F |
| 114 to 117 | CC(C)(C)OC(=O)NC(=O)OC(C)(C)C |
| 93 to 95 | Nc1c(Br)cc(Cl)cc1Br |
| 127 | CC12CCC(C(=CC(Cc3ccccc3)C(=O)O)C1=O)C2(C)C (stereo not given) |
| 46.5 | CC1c2ccccc2-c2ccccc21 |
| 31 | CCCCCCCCC(=O)CCCCCC |
| 170 to 173 | CC(C)(C)c1cc(C(C)(C)C)c(N=O)c(C(C)(C)C)c1 |
| 142 | CCCN(CCC)C(=O)C(CCC(=O)O)NC(=O)c1ccccc1 (stereo not given) |

| melting point [°C] | SMILES |
| --- | --- |
| 151 | Nc1ccc(O)cc1[N+](=O)[O-] |
| 262 | C1=NCC(c2ccc(C3CN=CC=N3)cc2)N=C1 (stereo not given) |
| -17 | Cc1cccnc1C |
| 150 to 152 | NC(=O)c1cccnc1Oc1ccc(Cl)cc1 |
| 132 to 139 | CCOC(=O)C1=C(C)NC(C)=C(C(=O)OCC)C1C |
| 136 to 138 | Oc1cccc(N2CCOCC2)c1 |
| 17 | CCOC(=O)C(O)C(O)C(=O)OCC (stereo not given) |
| 60 | CCCCCCCCCCCCCCCCOc1ccc(N)cc1 |
| 206 to 210 | Cc1cc2occ(C#N)c(=O)c2cc1C |
| 92.5 | CC(C)OC(=O)C1(S(=O)(=O)c2ccc(Cl)cc2)CCCC1 |
| 234 | Clc1ccccc1-c1nc2ccccc2[nH]1 |
| 38 to 39 | Clc1ccc(OCCBr)cc1 |
| 128 to 130 | Nc1nnc(C2CC2)[nH]1 |
| 166 | COc1cc(C2OCC3C(c4ccc(OC(C)=O)c(OC)c4)OCC23)ccc1OC(C)=O (stereo not given) |
| 97 | Cc1cnc(N)s1 |
| 322 | O=C1NN(c2ccccc2)C(=O)C1=Cc1ccc(Cl)cc1 |
| 76 to 77 | Cc1ncc(C=O)n1C |
| 85 | O=C(O)C(=S)Cc1cccc(CC(=S)C(=O)O)c1 |
| -60 | FC(Cl)CCl (stereo not given) |
| 204 to 205 | CCOC(=O)c1c(NC(=S)Nc2ccc(Br)cc2)sc2c1CCCC2 |
| 67.2 | C=CCCCCCCCCCCCCCCCCC1CC(=O)OC1=O (stereo not given) |
| 205 | NC(=O)N1c2ccccc2CCc2ccccc21 |
| 12 | CCCC(=O)c1ccccc1 |
| -65.7 | CC1CCCC(C)(C)C1 (stereo not given) |
| 217 | COC(=O)C1=C(C)NC(C)=C(C(=O)On2nnc3ccccc32)[C@H]1c1ccc([N+](=O)[O-])cc1 |
| 10 | CC1(C)CC(N)CC(C)(CN)C1 (stereo not given) |

More lines, now with the values behind:

| SMILES | melting point [°C] |
| --- | --- |
| Nc1ncncn1 | 219 to 224 |
| COc1cc(C)c(C(O)C#N)cc1OC (stereo not given) | 80 |
| COC(=O)c1cc([N+](=O)[O-])ccc1OC | 101 |
| CC(O)(C(=O)O)c1ccccc1 (stereo not given) | 116 |
| FC(F)(F)C(F)(F)N(C(F)(F)C(F)(F)F)C(F)(F)C(F)(F)F | -110 |
| NC(=O)c1cc(C(F)(F)F)cc(C(F)(F)F)c1 | 162 |
| CC(C)(C)NC(=S)c1cc(C(C)(C)C)c(O)c(C(C)(C)C)c1 | 203 to 204 |
| C=CC1CN2CCC1CC2C12Nc3ccccc3C1(O)CCO2 (stereo not given) | 186 |
| S=C1NC(=S)C(c2ccccc2)(c2ccccc2)N1 | 263 |
| CC(C)(C)NC(=O)[C@@H]1CC2CCCCC2CN1 (stereo not given in full) | 115 to 117 |
| OCCCCC#CC#CCCCCO | 50 |
| CCC(O)CN (stereo not given) | 3 |
| NC(=O)Nc1ccccn1 | 173 to 175 |
| Cc1nn(C)c(Cl)c1I | 64 to 65 |
| O=CNC(O)C(Cl)(Cl)Cl (stereo not given) | 120 |
| O=C(c1cc2ccccc2o1)c1cc2ccccc2o1 | 174 to 175 |
| FC(F)(F)C(F)(F)C(F)(F)C(F)(F)C(F)(F)C(F)(F)F | -4 |
| BrCC(Br)(Br)Br | 0 |
| O=Cc1ccc(-c2cccs2)cc1 | 67 to 68 |
| C=CCCCCCCC1CO1 (stereo not given) | 25 |
| CC(C)(C)c1ccc2c(c1)C(=O)c1ccccc1C2=O | 99 |
| C/C(C#Cc1ccccc1)=C/C(C)=N/Nc1ccc([N+](=O)[O-])cc1[N+](=O)[O-] | 210 to 212 |
| COC(=O)c1ccc(OC)c(S(=O)(=O)Cl)c1 | 126 to 128 |
| COC(=O)c1cc(C)[nH]c1C | 120 |
| COc1cc(O)c2c(=O)c(O[C@@H]3O[C@H](CO)[C@H](O)[C@H](O)[C@@H]3O[C@@H]3O[C@H](C)[C@H](O)[C@H](O)[C@@H]3O)c(-c3cccc(O)c3)oc2c1 | 182 to 188 |
| COC(=O)c1cc2c(=O)oc3ccccc3c2nc1N | 263 to 265 |

| SMILES | melting point [°C] |
| --- | --- |
| N[C@@H](c1ccccc1)c1c(O)ccc2ccccc12 | 133 to 137 |
| O=C(Cc1ccccc1)OC1Cc2ccccc21 (stereo not given) | 42 |
| CCCCCCC(O)CCC (stereo not given) | -11 |
| COC(=O)c1ccc(N)nc1 | 159 to 160 |
| Nc1cccc(C=CC(=O)c2ccccc2)c1 | 159 |
| O=C(O)CCCCCCCCCCCCC1C=CCC1 (stereo not given) | 68.5 |
| CN(C)Cc1c[nH]c2ccccc12 | 138 |
| Cn1cnc([N+](=O)[O-])c1Sc1ncnc2nc[nH]c12 | 244 |
| COc1ccc(Nc2ccc(OC)cc2)cc1 | 102 |
| CCC1C(=O)CCC1=O | 172 to 175 |
| O=[N+]([O-])c1ccc2c(O)c(-c3ccc(-c4[nH]c5cc([N+](=O)[O-])ccc5c4O)cc3)[nH]c2c1 | 360 |
| Cc1ccc(S(=O)(=O)N2C/C(=C\c3cccc(Cl)c3)N(S(=O)(=O)c3ccc(C)cc3)c3ccccc32)cc1 | 145 |
| CC(CN1CC(=O)NC(=O)C1)N1CC(=O)NC(=O)C1 (stereo not given) | 238 |
| CCOC(=O)c1c(-c2ccccc2)csc1NC(=O)CN(CC)CC | 93 to 94 |
| CC(=O)c1nc2ccccc2s1 | 109 to 112 |
| CN(CC=CC#CC(C)(C)C)Cc1cccc2ccccc12 | 196 |
| O=C(O)COc1ccc(I)cc1 | 157 |
| O=C(Nc1ccccc1)N(Cc1ccc(Cl)cc1)C1CCCC1 | 132 |
| Nc1nc(N)nc(NC2CC2)n1 | 225 |
| COc1ccc(OC)c(N=C=S)c1 | 36 |
| CC(C)(C)c1cc(C(C)(C)C)c(O)c(C(C)(C)C)c1 | 131 |
| O=C1C(c2cccc(C3=[N+]([O-])c4cc([N+](=O)[O-])ccc4C3=O)c2)=[N+]([O-])c2cc([N+](=O)[O-])ccc21 | 287 |
| NNc1nc(N)nc(-c2ccccn2)n1 | 287 to 289 |
| Cc1c(C(=O)Cl)cnn1-c1ccccc1 | 147 to 148 |
| N#CCN(CC#N)CC#N | 126 |
| NN1C(=O)CSC1=S | 102 |

| SMILES | melting point [°C] |
| --- | --- |
| O=C(CCCCC(=O)NCCCC(=O)ON1C(=O)CCC1=O)NCCCC(=O)ON1C(=O)CCC1=O | 145 |
| Cn1c(=O)c(C2=NNC(=O)C2=CNc2ncccn2)c(O)c2ccccc21 | 279 |
| Cc1ccccc1CS(=O)(=O)Cl | 52 to 53 |
| Cn1nc(O)cc1C(F)(F)F | 114 to 115 |
| CCC=C1CCC2C3CCC4CC(OC(C)=O)CCC4(C)C3CCC12C (stereo not given) | 114 |
| COc1ccc2c3c(n(C)c2c1)CCCC3 | 96 |
| CC(N)P(=O)(O)O (racemic) | 283 to 284 |
| CC1=CC(=C(C#N)C#N)C=C(C=Cc2ccc(N(C)C)cc2)O1 | 212 |
| Cc1nc(-c2cccc(C#N)c2)cs1 | 112 to 114 |
| O=C(O)c1cnn(-c2ccc(Cl)cc2)c1C(F)(F)F | 137 to 138 |
| CN(CC(=O)O)N=O | 66.5 |
| CC(=O)CCc1ccc2c(c1)NC(C)CC2 (stereo not given) | 54 |
| CC(=O)N1CCNCC1 | 32 |
| COc1ccc(-c2ocnc2C(=O)O)cc1 | 147 to 151 |
| CC(=O)OC1CCC2C3CCC4CC(=C(C)C)CCC4(C)C3CCC12C (stereo not given) | 107 to 108 |
| COc1ccc(C(=O)Cc2c(CCN(C)C)cc3c(c2OC)OCO3)c(C(=O)O)c1OC | 138 |
| CS(=O)(=O)c1ccc(C(=O)O)c(Cl)c1 | 194 |
| Fc1ccc2c3c([nH]c2c1)CNCC3 | 224 |
| O=C(Nc1ccccn1)C(C(F)(F)F)C(F)(F)F | 108 to 110 |
| CCOC(=O)CCCC(=O)OCC | -24.1 |
| CCOC(=O)c1ccc(COC(C)=O)o1 | 42.3 |
| Nc1ccc(Cl)c(Cl)c1Cl | 73 |
| NC(=O)c1cc(C(=O)CN(Cc2ccccc2)Cc2ccccc2)ccc1O | 168 |
| C#CCCCCCCCCCCCC | 0 |
| FC(F)(F)C(F)(F)C(F)(F)C(F)(F)C(F)(F)F | -100 |
| Clc1ccc(I)cn1 | 97 |

From a melting point compilation (Tetko et al.)
